Data reported in ChEMBL document CHEMBL1124557, “Pentadienyl carboxamide derivatives as antagonists of platelet-activating factor” (J Med Chem, 1989).

Assays:
[1] = tested on: Platelet-activating factor receptor (Canis familiaris); assay: Compound was evaluated for inhibition of platelet activating factor binding activity in dog platelets using [3H]PAF as radioligand; NA means inactive
[2] = target: Platelet-activating factor receptor (Cavia porcellus) (UniProt P21556); assay: Ability to prevent PAF-induced bronchoconstriction in guinea pig when administered intravenously; type: functional
Sequence of Platelet-activating factor receptor (Cavia porcellus) (P21556 whole entry): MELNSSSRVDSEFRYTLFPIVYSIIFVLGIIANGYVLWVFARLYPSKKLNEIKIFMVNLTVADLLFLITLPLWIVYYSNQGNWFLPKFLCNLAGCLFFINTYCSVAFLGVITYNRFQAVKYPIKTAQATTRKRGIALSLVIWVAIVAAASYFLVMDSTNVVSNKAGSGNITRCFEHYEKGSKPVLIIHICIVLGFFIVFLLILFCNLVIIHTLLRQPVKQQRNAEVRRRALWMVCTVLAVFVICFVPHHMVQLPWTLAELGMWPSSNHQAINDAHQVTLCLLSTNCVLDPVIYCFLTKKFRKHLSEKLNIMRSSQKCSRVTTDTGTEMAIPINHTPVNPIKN

[3] = target: Platelet-activating factor receptor (Cavia porcellus) (UniProt P21556); assay: Ability to prevent PAF-induced bronchoconstriction in guinea pig 2 hr after administration (50 mg/kg perorally); type: functional, organism-based
Cavia porcellus [4] = assay: Ability to prevent PAF-induced bronchoconstriction in guinea pig 6 hr following 50 mg/kg p.o. administration.; type: functional; settings: route oral
Cavia porcellus [5] = assay: Ability to prevent PAF-induced bronchoconstriction in guinea pig when administered at a dose of 1 mg/kg intravenously; type: functional; settings: route intravenous
Cavia porcellus [6] = assay: Inhibition of PAF-induced bronchoconstriction in guinea pig 2 hr after p.o. administration.; type: functional; settings: po, read-out: ID50 (the source's name)
Cavia porcellus [7] = assay: Inhibitory activity against bronchoconstriction in guinea pig 2 hr after peroral administration of compound; type: functional; settings: Lung, po, read-out: ID50 (the source's name)
Cavia porcellus [8] = assay: Ability to prevent PAF-induced bronchoconstriction in guinea pig when administered dose 0.5 mg/kg intravenously; type: functional; settings: route intravenous

SMILES | IC50 [1] | ID50 [2] [mg/kg] | inhibition [3] [%] | inhibition in vivo at 50 mg/kg (Cavia porcellus [4]) [%] | inhibition in vivo at 1 mg/kg (Cavia porcellus [5]) [%] | ED50 (Cavia porcellus [6]) [mg/kg] | ED50 (Cavia porcellus [7]) [mg/kg] | inhibition in vivo at 0.5 mg/kg (Cavia porcellus [8]) [%]
O=C(CCCC=C(c1ccccc1)c1ccccc1)NCCCCc1cccnc1 | Not Active |  |  |  |  |  |  | 
C[C@@H](CCCc1cccnc1)NC(=O)/C=C/C=C(c1ccc(F)cc1)c1ccc(F)cc1 |  |  |  |  | 21 |  |  | 
COc1ccc(/C(=C\C=C\C(=O)N[C@H](C)CCCc2cccnc2)C2CCCCC2)cc1 |  |  |  |  | 18 |  |  | 
COc1ccc(C(=C/C=C/C(=O)Nc2ccc(-c3cccnc3)cc2)c2ccc(OC)cc2)cc1 |  | 0.15 | 82 | 77 | 97 | 29 |  | 
COc1ccc(/C=C/C=C/C(=O)N[C@H](C)CCCc2cccnc2)cc1 |  |  |  |  | -17 |  |  | 
COc1ccccc1C(=C/C=C/C(=O)NCCCCc1cccnc1)c1ccccc1OC |  |  |  |  | 40 |  |  | 
CCCC[C@H](CCCc1cccnc1)NC(=O)/C=C/C=C(c1ccc(OC)cc1)c1ccc(OC)cc1 |  |  |  |  | 42 |  |  | 
COc1ccc(/C(C)=C/C=C/C(=O)N[C@H](C)CCCc2cccnc2)cc1 |  |  |  |  | 42 |  |  | 
COc1ccc(C(=C/C=C/C(=O)N[C@@H](CCCc2cccnc2)C2CCCC2)c2ccc(OC)cc2)cc1 |  |  |  |  | 19 |  |  | 
O=C(/C=C/C=C(c1cccc(Cl)c1)c1cccc(Cl)c1)NCCCCc1cccnc1 |  | 0.47 | 23 |  | 76 |  |  | 
COc1ccc(C(=C/C=C/C(=O)NCCOCc2cccnc2)c2ccc(OC)cc2)cc1 |  |  |  |  | 48 |  |  | 
O=C(CCCCC=C(c1ccccc1)c1ccccc1)NCCCCc1cccnc1 |  |  |  |  |  |  |  | 15
COc1ccc(C(=C/C=C/C(=O)NCCCOc2cccnc2)c2ccc(OC)cc2)cc1 |  |  |  |  | 43 |  |  | 
O=C(/C=C/C=C(c1cccc([N+](=O)[O-])c1)c1cccc([N+](=O)[O-])c1)NCCCCc1cccnc1 |  | 0.26 |  |  | 78 |  |  | 
O=C(/C=C\C=C(c1ccccc1)c1ccccc1)NCCCCc1cccnc1 |  |  |  |  |  |  |  | -1
O=C(CC=C(c1ccccc1)c1ccccc1)NCCCCc1cccnc1 | Not Active |  |  |  |  |  |  | 
CC[C@@H](CCCc1cccnc1)NC(=O)/C=C/C=C(c1ccc(OC)cc1)c1ccc(OC)cc1 |  |  |  |  | 44 |  |  | 
O=C(C=C(c1ccccc1)c1ccccc1)NCCCCc1cccnc1 |  | 0.58 | 28 |  |  |  |  | 66
O=C(CCCCCC=C(c1ccccc1)c1ccccc1)NCCCCc1cccnc1 | Not Active |  |  |  |  |  |  | 
CCC[C@H](CCCc1cccnc1)NC(=O)/C=C/C=C(c1ccc(OC)cc1)c1ccc(OC)cc1 |  |  |  |  | 24 |  |  | 
O=C(CCC=C(c1ccccc1)c1ccccc1)NCCCCc1cccnc1 |  |  |  |  |  |  |  | 21
COc1ccc(C(=C/C=C/C(=O)NC(C)CCCc2ccc(C)nc2)c2ccc(OC)cc2)cc1 (configuration not stated) |  |  |  |  | 5 |  |  | 
COc1ccc(C(=C/C=C/C(=O)Nc2ccc(Cc3cccnc3)cc2)c2ccc(OC)cc2)cc1 |  |  |  |  | 3 |  |  | 

Further lines, with some results ahead:

IC50 [1] | ID50 [2] [mg/kg] | inhibition [3] [%] | SMILES | inhibition in vivo at 50 mg/kg (Cavia porcellus [4]) [%] | inhibition in vivo at 1 mg/kg (Cavia porcellus [5]) [%] | ED50 (Cavia porcellus [6]) [mg/kg] | ED50 (Cavia porcellus [7]) [mg/kg] | inhibition in vivo at 0.5 mg/kg (Cavia porcellus [8]) [%]
 | 0.16 | 99 | CC[C@H](CCCc1cccnc1)NC(=O)/C=C/C=C(c1ccc(OC)cc1)c1ccc(OC)cc1 | 85 | 99 | 6 |  | 
 | 0.43 | 57 | COc1ccc(C(=C/C=C/C(=O)N[C@@H](CCCc2cccnc2)C(C)C)c2ccc(OC)cc2)cc1 |  | 87 | 26 |  | 
 | 0.2 | 99 | COc1ccc(C(=C/C=C/C(=O)N[C@@H](CCCc2cccnc2)C2CC2)c2ccc(OC)cc2)cc1 | 82 | 98 | 6 |  | 
 | 0.21 | 86 | COc1cccc(C(=C/C=C/C(=O)N[C@H](C)CCCc2cccnc2)c2cccc(OC)c2)c1 | 12 | 88 | 29 |  | 
 | 0.14 | 67 | COc1ccc(C(=C/C=C/C(=O)N[C@H](C)CCCc2cccnc2)c2ccc(OC)c(OC)c2)cc1OC | 2 | 99 | 26 |  | 
 | 0.21 | 97 | COc1ccc(/C(=C/C=C/C(=O)N[C@H](C)CCCc2cccnc2)C2CCCCC2)cc1 | 12 | 73 | 10 |  | 
 | 0.25 | 82 | COc1ccc(C(=C/C=C/C(=O)NCCCCc2cccnc2)c2ccc(OC)cc2)cc1 | 71 | 92 | 12 |  | 
 | 0.38 | 89 | O=C(/C=C/C=C(c1ccc(F)cc1)c1ccc(F)cc1)NCCCCc1cccnc1 |  | 91 |  | 28 | 
 | 0.25 | 1 | COc1cccc(/C(=C/C=C/C(=O)NCCCCc2cccnc2)c2cccc(F)c2)c1 |  | 90 |  |  | 
 | 0.16 | 95 | COc1ccc(/C(=C/C=C/C(=O)N[C@H](C)CCCc2cccnc2)c2ccccc2)cc1 | 53 | 89 |  |  | 
 | 0.68 | 84 | CC/C(=C\C=C\C(=O)N[C@H](C)CCCc1cccnc1)c1ccc(OC)cc1 | 9 | 72 | 35 |  | 
 |  | 10 | COc1cccc(C(=C/C=C/C(=O)N[C@@H](C)CCCc2cccnc2)c2cccc(OC)c2)c1 |  | 36 |  |  | 
 | 0.52 | 9 | CCC/C(=C\C=C\C(=O)N[C@H](C)CCCc1cccnc1)c1ccc(OC)cc1 |  | 86 |  |  | 
 | 0.78 | 13 | CCCCC/C(=C/C=C/C(=O)N[C@H](C)CCCc1cccnc1)c1ccc(OC)cc1 |  | 57 |  |  | 
 | 0.68 | 98 | CCCC/C(=C\C=C\C(=O)N[C@H](C)CCCc1cccnc1)c1ccc(OC)cc1 | 69 | 99 | 12 |  | 
 | 0.31 | 53 | C[C@H](CCCc1cccnc1)NC(=O)/C=C/C=C(c1ccc(F)cc1)c1ccc(F)cc1 |  | 70 |  |  | 

IC50 [1] | ID50 [2] [mg/kg] | inhibition [3] [%] | SMILES | inhibition in vivo at 50 mg/kg (Cavia porcellus [4]) [%] | inhibition in vivo at 1 mg/kg (Cavia porcellus [5]) [%] | ED50 (Cavia porcellus [6]) [mg/kg] | ED50 (Cavia porcellus [7]) [mg/kg] | inhibition in vivo at 0.5 mg/kg (Cavia porcellus [8]) [%]
 | 1.1 |  | COc1ccc(C(=C/C=C/C(=O)NC(C)CCCc2cccnc2C)c2ccc(OC)cc2)cc1 (configuration not stated) |  | 47 |  |  | 
 | 0.84 | 90 | COc1ccc(C(=C/C=C/C(=O)N[C@@H](C)CCCc2cccnc2)c2ccc(OC)cc2)cc1 | 56 | 59 | 29 |  | 
 | 0.18 | 54 | O=C(/C=C/C=C(c1ccc(Cl)cc1)c1ccc(Cl)cc1)NCCCCc1cccnc1 |  | 95 | 50 |  | 
 | 0.54 | 71 | COc1ccc(C(=C/C=C/C(=O)NCCCCc2cccnc2)c2ccc(OC)c(OC)c2)cc1OC | 17 | 78 | 27 |  | 
 | 0.27 | 54 | COc1ccc(C(=C/C=C/C(=O)NC(C)(C)CCCc2cccnc2)c2ccc(OC)cc2)cc1 |  | 97 | 55 |  | 
 | 0.34 | 37 | O=C(/C=C/C=C(c1cccc(F)c1)c1cccc(F)c1)NCCCCc1cccnc1 |  | 71 |  | 50 | 
 | 0.64 | 4 | CCCCCC(=C/C=C/C(=O)N[C@H](C)CCCc1cccnc1)CCCCC |  | 78 |  |  | 
 | 0.3 | 91 | Cc1ccc(C(=C/C=C/C(=O)N[C@H](C)CCCc2cccnc2)c2ccc(C)cc2)cc1 | 14 | 97 | 18 |  | 
 | 0.36 | 31 | COc1cccc(C(=C/C=C/C(=O)NCCCCc2cccnc2)c2cccc(OC)c2)c1 |  | 69 | 80 |  | 
 | 0.46 | 25 | COc1cccc(/C(=C\C=C\C(=O)NCCCCc2cccnc2)c2cccc(F)c2)c1 |  | 88 |  |  | 
 | 0.26 | 67 | Cc1ccc(C(=C/C=C/C(=O)NCCCCc2cccnc2)c2ccc(C)cc2)cc1 | 11 | 95 | 43 |  | 
 | 0.22 | 91 | C[C@H](CCCc1cccnc1)NC(=O)/C=C/C=C(c1cccc(F)c1)c1cccc(F)c1 | 87 | 73 | 37 |  | 
 | 0.1 | 84 | CCCCCCCC/C(=C\C=C\C(=O)N[C@H](C)CCCc1cccnc1)c1ccc(OC)cc1 | 27 | 98 | 13 |  | 
 | 0.41 | 71 | COc1ccc(/C(=C/C=C/C(=O)N[C@H](C)CCCc2cccnc2)C(C)C)cc1 | 20 | 89 | 30 |  | 
 |  | 46 | C[C@@H](CCCc1cccnc1)NC(=O)/C=C/C=C(c1cccc(F)c1)c1cccc(F)c1 |  | 34 |  |  | 
 | 0.5 | 0 | COc1ccc(/C(=C\C=C\C(=O)N[C@H](C)CCCc2cccnc2)c2ccccc2)cc1 |  | 74 |  |  | 
